Results on six compounds are retold here after US20240175865A1, “IMPROVED PROCESSES FOR RATIONALLY-DESIGNING AND PRODUCING BIOMOLECULES” (priority 2020, published 2024).

The structures appear in SMILES notation. Where two headings read alike, the source gives them in different places.

In general, koff refers to the first-order rate constant of dissociation. As a reminder, the Kd is the concentration at which binding is half-saturated.

The target in assay [1] is T1, Escherichia coli EF-Tu, unmodified (SEQ ID NO: 3) (Escherichia coli, UniProt P0CE47).
T1 construct: His6 tag (C-terminal SHHHHHH in the listing) (C)
Kind of assay: Nucleotide dissociation rate, stopped-flow, unmodified EF-Tu. The note with it: 20° C., TAKM7. Format: binding.

Assay [2] addresses T2, Streptococcus pneumoniae MalX variant T243C, MDCC conjugate (parent MalX SEQ ID NO: 1) (Streptococcus pneumoniae serotype 4, UniProt P59213, I417L/S91N/T250C).
T2 construct: made in house; host or cells: Escherichia coli BL21(DE3) gold
In words: biochemical. Format: binding.

Assay [3] addresses Streptococcus pneumoniae MalX variant A174C, MDCC conjugate (parent MalX SEQ ID NO: 1) (Streptococcus pneumoniae, UniProt P59213, A181C). The class given is binding. The note with it: 1 μM biosensor.
The target of assay [4] is Streptococcus pneumoniae MalX, unlabeled protein (SEQ ID NO: 1). The note with it: unlabeled protein (ABBOTT et al. 2010); read-out: measured affinity (KD); cited from earlier work.
Assay [5] deals with Streptococcus pneumoniae MalX variant E312C, MDCC conjugate (parent MalX SEQ ID NO: 1) (Streptococcus pneumoniae, UniProt P59213, E319C). The class given is binding. The note with it: 1 μM biosensor.
Assay [6] has as its system Yersinia enterocolitica TogB, unmodified protein (SEQ ID NO: 2). The note with it: UV-difference spectroscopy; cited from earlier work.
Assay [7] has the same test system. The note with it: isothermal titration calorimetry; cited from earlier work.
Assay [8] has as its target T2, Streptococcus pneumoniae MalX variant T243C, MDCC conjugate (parent MalX SEQ ID NO: 1). Format: binding. The note with it: 1 μM biosensor, 20 μM maltose.

Consider `Nc1nc2c(ncn2[C@@H]2O[C@H](COP(=O)(O)OP(=O)(O)O)[C@@H](O)[C@H]2O)c(=O)[nH]1` [GDP, guanosine diphosphate], for which the koff in assay [1] (mantGDP complex mixed with excess GTP/GDP, read-out: GDP Dissociation Rate Koff) was 0.002 ± 0.001 s⁻¹.

With `Nc1nc2c(ncn2[C@@H]2O[C@H](COP(=O)(O)OP(=O)(O)OP(=O)(O)O)[C@@H](O)[C@H]2O)c(=O)[nH]1` [GTP, guanosine triphosphate], in assay [1] (mantGTP complex mixed with excess GTP/GDP, read-out: GTP Dissociation Rate koff), the koff came to 0.04 ± 0.01 s⁻¹.

As for `OC[C@H]1O[C@H](O[C@H]2[C@H](O)[C@@H](O)[C@@H](O[C@H]3[C@H](O)[C@@H](O)C(O)O[C@@H]3CO)O[C@@H]2CO)[C@H](O)[C@@H](O)[C@@H]1O` (stereo partly shown) [M3, Maltotriose], the Kd in assay [2] is 0.6 ± 0.2 µM; in assay [4] it was 0.8 ± 0.125 µM. The “fluorescence change upon binding M3” value in assay [3] (20 μM M3) and in assay [5] (20 μM M3) was “did not show a fluorescence change” each time.

In the case of `O=C(O)[C@H]1O[C@H](O[C@@H]2[C@H](O)[C@@H](O)C(O)O[C@@H]2C(=O)O)[C@H](O)[C@@H](O)[C@H]1O` (stereo partly shown) [digalUA, digalacturonic acid], the Kd was 11.8 ± 0.5 µM in assay [6] and 16 ± 2 µM in assay [7].

With `OC[C@H]1O[C@H](O[C@H]2[C@H](O)[C@@H](O)C(O)O[C@@H]2CO)[C@H](O)[C@@H](O)[C@@H]1O` (stereo partly shown) [maltose, Maltose], the “fluorescence change in presence of non-specific ligand (maltose)” value in assay [3] (20 μM maltose), in assay [8] and in assay [5] (20 μM maltose) was “little to no fluorescence change” throughout.

For `O=C(O)C1=C[C@H](O)[C@@H](O)[C@@H](O[C@@H]2[C@H](O)[C@@H](O)C(O)O[C@@H]2C(=O)O)O1` (stereo partly shown) [unsatdigalUA, 4,5-unsaturated digalacturonic acid], the dissociation constant (Kd) in assay [6] is 3.2 ± 0.1 µM; in assay [7] it was 5 ± 1 µM.
